Measurements published in patent publication US9657046B2, “Methods for the treatment and prevention of inflammatory diseases” (Children's Medical Center Corporation, priority 2010, dated 2017).

Experiments:
[1] = tested on: OVA-sensitized BALB/c mice; experiment: Adoptive transfer of NKT cells from glycolipid-treated mice into OVA-sensitized BALB/c recipients (AHR, BAL); format: in vivo, mouse; conditions: OVA-sensitized WT recipients
mouse NKT cell lines = experiment: Staining of mouse NKT cell line with PI57-loaded CD1d tetramers; format: binding
Method: In FIG. 7A, NKT cell lines were cocultured with BM-derived DCs (BMDCs) and α-GalCer (100 ng/ml), PI57 (10 μg/ml), or vehicle for 48 hours, with or without pre-incubation with anti-CD1d (10 μg/ml). IFN-γ was measured by ELISA. In FIG. 7B, murine NKT cell lines were cocultured as in 7A with BMDCs from WT, Cd1d^−/−, Myd88^−/−, or Trif^−/− mice. Cells were treated with α-GalCer (100 ng/ml), PI57 (2.5, 5, or 10 μg/ml), PBS30 (1, 2.5, or 5 μg/ml), or vehicle for 48 hours. IFN-γ and IL-4 were measured by ELISA. […] In FIG. 7D, mouse NKT cell lines were stained with PE-labeled CD1d tetramers of PI57 or α-GalCer at 4° C. for 45 minutes or 37° C. for 25 minutes, and with anti-TCRβ-APC antibody. Top: Lymphocytes were gated in the FSC/SSC window. Bottom: Percentage of CD1d tetramer+ cells. […] In FIG. 7G, CD1d Fc-coated Maxisorp plates were loaded with lipid and cultured with 5×10^4 NKT cells. IFN-γ was analyzed by ELISA after 24 hours. Data represent 3 or 5 independent experiments.
To generate PI57 loaded mCD1d monomers, a 10-fold molar excess of PI57 in DMSO at 2 mg/ml was incubated with biotinylated-mCD1d (from the NIH Tetramer facility) in 2 mM CHAPS and 20 mM Tris pH7.0 overnight at room temperature. […]
Cells were preincubated with anti-Fey blocking mAb (2.4G2) and washed before staining. […] Cells were analyzed on a BDCanto flow cytometer (BD Biosciences) using FlowJo 8.3.3 software (Tree Star, Inc.).

T-bet−/− mice = experiment: OVA-induced AHR in T-bet−/− mice treated with glycolipid at 2 weeks of age; format: in vivo, mouse; conditions: 2 wk old T-bet−/− mice; α-C-GalCer 5 μg or PI57 50 μg; AHR measured on day 44
Method: In FIGS. 6A-6B, two-week-old BALB/c mice (n=6-8/group) (6A) or Tbet^−/− mice (6B) (n=4-6 per group) received 5 μg […] (cGal), 2 μg α-GalCer, or vehicle. After OVA sensitization and challenge, AHR was measured on day 44. In FIG. 6C, donor mice were treated with α-C-GalCer (5 μg) or vehicle i.p. NKT cells served as donors, as in FIG. 4A (n=4 per group). Lung resistance (left) and cell counts in BAL (right) were assessed. […] In FIG. 6E, mice received PI57 (50 μg), α-GalCer (2 μg), or vehicle i.p., and lungs were examined 1 or 14 days later for CD4 and CD8 expression. In FIG. 6F, absolute numbers of CD4^+ NKT and DN NKT subsets from 6E were assessed. In FIG. 6G, BALB/c mice (n=5-8/group) received PI57 or vehicle i.p. Lung resistance (left) and BAL cells (right) were assessed. In FIG. 6H, BALB/c mice treated with PI57 (50 μg), PBS30 (Sphingomonas glycolipid) (50 μg), or vehicle i.p. were assessed for AHR as in 6G. […] Lung resistance (left) and BAL cells (right) were assessed (n=4 per group). […]
In FIG. 10, NKT cells from α-GalCer or vehicle-treated mice were adoptively transferred to OVA-sensitized BALB/c recipients. AHR was measured after OVA challenge. […] After sensitization and challenge with OVA, AHR was measured on day 44. […]
To induce AHR, BALB/c mice were sensitized with 100 μg of OVA (Sigma-Aldrich) in alum administered i.p (on day 0). […] AHR was assessed on the day after last OVA-challenge. […]

## CCCCCCCCCCCCCC(=O)OC[C@H]1O[C@H](O[C@H]2CC[C@@]3(C)C(=CC[C@H]4[C@@H]5CC[C@H]([C@H](C)CCCC(C)C)[C@@]5(C)CC[C@@H]43)C2)[C@H](O)[C@@H](O)[C@@H]1O [PI57, Cholesteryl 6-O-tetradecanoyl-α-D-glucopyranoside]
[1]; donors treated i.p. at 2 wk (α-C-GalCer 5 μg, PI57 50 μg)
  airway inflammation (BAL cells, lung sections) in recipients of NKT cells from glycolipid-treated donors: suppressed AHR and airway inflammation
[1]; donors treated i.p. at 2 wk (α-C-GalCer 5 μg, PI57 50 μg, or α-GalCer), NKT cells harvested 6 wks later
  AHR in recipients of NKT cells from glycolipid-treated donors: suppressed AHR
Mouse NKT cell lines
  fraction of PI57-CD1d tetramer+ cells that were CD4− (DN): 92%
Mouse NKT cell lines; 4° C. for 45 minutes or 37° C. for 25 minutes
  NKT cells in an NKT cell line stained by glycolipid-loaded CD1d tetramers: 10-23%
T-bet−/− mice
  protection against OVA-induced AHR in T-bet−/− mice: did not protect against subsequent OVA-induced AHR
